Measured values as given in patent publication EP3248604A1, “AGENTS FOR MODULATION OF WNT-TCF SIGNALLING AND USES THEREOF” (UNIVERSITE DE GENEVE, priority 2016, dated 2017).

Legend:
[1] = test system: Epigenetic regulators; assay: RT-qPCR of epigenetic regulators in U251 cells; format: cell-based, human; conditions: 0.5 µM
Method: RT-qPCR was performed as in Melotti et al. (2014, supra) using BioRad equipment and reagents. Cells cultured in nitro were treated with the desired concentration of drug in DMEM-F12 and reduced serum (2.5% FBS) for 16h, unless otherwise noted, and collected in Trizol (Sigma) before total RNA extraction and cDNA synthesis. Primers were as in Table 1. HPRT (gene encoding Hypoxanthine phosphoribosyltransferase 1) and βACTIN were used as housekeeping controls for normalization.
The WNT-TCF-independent repressive activity of CAP2 on epigenetic regulators may be extrapolated to other cancer cells as it was also detected in HT29 and CC14 human colon cancer cells, in MeWo human melanoma cells as well as in U87 and U251 human glioma cells. In all these different human cancer cells, CAP2 (at 0.5 µM) modulated the expression of ZMYND8, SMARCAL1, TBLIXR1, SETD6 and TAF5Ls (Table 15).

[2] = test system: WNT-TCF targets; assay: Epistatic rescue with TCF^VP16, mCC11; format: cell-based, human; conditions: CAP2 5µM, 16h
Method: Lentivectors expressing a TCF4^VP16 protein in a vector independently expressing GFP, or vector alone, plus reporter plasmids were transfected into cells. 72h after transfection cells were visually checked for expression of GFP. Independent batches of cells with >80% GFP expression were chosen for further experimentation and treated with or without compounds in DMEM-F12 (with 2.5% FBS) for 16h and collected in Trizol.
If the effects of CAP2 on WNT-TCF targets were specific, an activated form of TCF should rescue the repression since CAP2 is likely to act downstream of the APC destruction complex since it was found using an N'Δ form of βCATENIN that is APC insensitive. To activate this last step of canonical WNT signaling, a fusion between TCF and the potent transactivation domain of the viral VP16 protein, TCF^VP16 (Melotti et al., 2014, supra), was used to directly and positively regulate TCF targets. […] Rescue of LGR5, cMYC and ASCL2 repression by CAP2 (at 5µM) was also observed although there was variability between the cell types, similarly to the repression of CDKN1A (Table 8), although in all cases it reversed its enhancement by CAP2 treatment (Table 8).

## CC1=C(C)C(=O)O[C@@H]([C@](C)(O)[C@]2(O)CC[C@@]3(O)[C@@H]4CC=C5CC=CC(=O)[C@]5(C)[C@H]4CC[C@]23C)C1 [CAP2]
[1]
  EED expression: 0.8
  SETD6 expression: 0.9
  SMARCAL1 expression: 0.5
  TAF5L expression: 1.1
  TBL1XR1 expression: 0.6
  ZMYND8 expression: 0.4
[2]
  ASCL2 expression, TCF^VP16+ CAP2 / control + CAP2: 3.5
  AXIN2 expression, TCF^VP16+ CAP2 / control + CAP2: 21.9
  CDKN1A expression, TCF^VP16+ CAP2 / control + CAP2: 0.8
  LGR5 expression, TCF^VP16+ CAP2 / control + CAP2: 2.9
  cMYC expression, TCF^VP16+ CAP2 / control + CAP2: 3.3
